Results taken from patent US7122683B2, “Amides useful as monoamine re-uptake inhibitors” (Pfizer Inc., priority 2004, dated 2006).
Where a name gives a salt, the structure may show the parent alone.

Key:
[1] = target: T1, human noradrenaline transporter (hNET) (Homo sapiens, UniProt P23975); test: SPA radioligand binding at human noradrenaline transporter (3H-nisoxetine); details: hNET membranes from HEK-293 cells, Ki from IC50 by Cheng-Prusoff, geometric mean, read-out: NRI Ki
T1 construct: expressed in transfected cells; host or cells: HEK-293
T1 sequence (P23975 whole entry): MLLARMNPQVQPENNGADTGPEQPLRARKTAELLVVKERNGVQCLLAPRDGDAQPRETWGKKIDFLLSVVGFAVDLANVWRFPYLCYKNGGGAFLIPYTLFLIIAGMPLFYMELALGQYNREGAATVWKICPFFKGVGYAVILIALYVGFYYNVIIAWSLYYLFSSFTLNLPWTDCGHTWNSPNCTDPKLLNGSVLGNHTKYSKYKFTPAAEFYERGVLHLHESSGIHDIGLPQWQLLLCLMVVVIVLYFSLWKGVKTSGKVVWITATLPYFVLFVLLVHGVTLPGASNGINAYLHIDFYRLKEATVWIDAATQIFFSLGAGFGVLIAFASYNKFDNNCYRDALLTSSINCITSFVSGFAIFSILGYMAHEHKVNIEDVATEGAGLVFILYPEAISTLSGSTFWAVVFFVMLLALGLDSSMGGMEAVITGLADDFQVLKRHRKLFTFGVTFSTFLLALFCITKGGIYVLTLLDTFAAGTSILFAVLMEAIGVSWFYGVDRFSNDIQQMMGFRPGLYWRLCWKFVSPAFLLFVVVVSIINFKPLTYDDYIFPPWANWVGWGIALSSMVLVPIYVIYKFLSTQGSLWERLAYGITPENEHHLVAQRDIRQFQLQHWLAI
Description: (§1) The compounds were tested for biological activity by their ability to inhibit binding of selective radioligands at the human serotonin and noradrenaline transporters (SERT and NET, respectively), using scintillation proximity assay (SPA) technology. The SPA binding was performed using cellular membrane preparations prepared from cell lines expressing human cDNA encoding either SERT or NET (hSERT, hNET), using the radioligands ^3H-citalopram and ^3H-nisoxetine.
(§2) Human embryonic kidney cells (HEK-293) expressing each transporter were maintained as a continuous culture, using standard cell culture techniques, in 50 mL of growth medium (see Media and Buffers for composition) in 225 cm^2 flasks, at 37° C. in a humidified atmosphere with 5% CO2 present. Cells were passaged from a 90% confluent monolayer at a ratio of 1:3–1:4.
(§3) For cell harvesting, the growth medium was removed from the monolayer and the cells were incubated with cell dissociation solution (Sigma) until showing signs of dissociation. The cells were subsequently knocked from the base of the flask and pelleted by centrifugation for storage (frozen at −80° C.) prior to further use.
(§4) Cell pellets were thawed on ice and resuspended in 3 mL of membrane preparation buffer (see Media and Buffers for composition) per 1 mL of packed cell volume, using a vortex mixer to disperse the cell pellet. After incubation on ice for 10 minutes, the suspension was homogenised for four individual 10 second intervals using a hand-held homogeniser. The homogenate was then centrifuged at 1075×g for 20 minutes at 4° C.
(§5) The supernatants were then collected and retained. […]
(§6) The pooled supernatants were centrifuged at 35000×g for 30 minutes at 4° C., and the supernatants discarded. […] Protein concentrations were then measured and the membrane suspension was finally frozen in aliquots of set volume and stored at −80° C. prior to use in assays.
(§7) The specific SPA bead type differed for each transporter, wheat germ agglutinin-coated yttrium silicate (YSi WGA) SPA beads were used for hSERT and WGA-coated polyvinyltoluene (PVT WGA) SPA beads for hNET assays. For each batch of membrane used, optimal concentrations of bead and membrane were determined
(§8) Tritiated radioligands specific to each transporter (^3H-citalopram for hSERT and ^3H-nisoxetine for hNET) were used. The assay free radioligand concentration was expressed as a percentage of the total free radioligand concentration to give an estimate of the radioligand depletion. […]
(§9) The affinity of the specific radioligand for the respective transporter was determined for each membrane batch at the selected protein and bead concentrations. […]
(§10) The mean KD for a radioligand at a batch of membranes was determined from data from a minimum of three separate assays. […]

[2] = target: T2, human serotonin transporter (hSERT) (Homo sapiens, UniProt P31645); test: SPA radioligand binding at human serotonin transporter (3H-citalopram); details: hSERT membranes from HEK-293 cells, Ki from IC50 by Cheng-Prusoff, geometric mean, read-out: SRI Ki
T2 construct: expressed in transfected cells; host or cells: HEK-293
T2 sequence (P31645 whole entry): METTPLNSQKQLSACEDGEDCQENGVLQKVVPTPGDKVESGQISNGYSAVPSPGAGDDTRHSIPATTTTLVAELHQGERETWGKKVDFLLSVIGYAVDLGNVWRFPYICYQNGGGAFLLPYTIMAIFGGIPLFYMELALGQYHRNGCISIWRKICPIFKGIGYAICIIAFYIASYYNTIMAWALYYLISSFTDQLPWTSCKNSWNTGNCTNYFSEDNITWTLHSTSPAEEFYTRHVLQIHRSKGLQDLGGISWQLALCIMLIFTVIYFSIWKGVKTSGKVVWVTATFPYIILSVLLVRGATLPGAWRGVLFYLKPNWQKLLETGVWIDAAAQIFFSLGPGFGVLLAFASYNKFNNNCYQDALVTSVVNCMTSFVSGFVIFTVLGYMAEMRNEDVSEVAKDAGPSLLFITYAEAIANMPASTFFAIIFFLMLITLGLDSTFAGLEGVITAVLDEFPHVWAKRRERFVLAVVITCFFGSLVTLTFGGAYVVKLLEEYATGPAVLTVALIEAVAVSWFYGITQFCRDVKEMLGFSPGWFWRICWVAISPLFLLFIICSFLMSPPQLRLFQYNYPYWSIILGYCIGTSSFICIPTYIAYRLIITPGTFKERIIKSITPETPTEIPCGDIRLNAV
Description: as §1, §2, §3, §4, §5, §6, §7, §8, §9, §10

| Ki [1] [µM] | Ki [2] [µM] | Compound |
| --- | --- | --- |
| 0.015 | 0.005 | O=C(c1cccc(Cl)c1Cl)N(C1CCCC1)[C@H]1CCNC1 [Example 1, 2,3-dichloro-N-cyclopentyl-N-[(3S)pyrrolidin-3-yl]benzamide hemi-edisylate] |
| 0.011 | 0.009 | O=C(c1cccc(Cl)c1Cl)N(C1CCCCC1)[C@H]1CCNC1 [Example 6, 2,3-dichloro-N-cyclohexyl-N-[(3S)-pyrrolidin-3-yl]benzamide hydrochloride] |
| 0.009 | 0.011 | O=C(c1ccccc1Cl)N(C1CCCCC1)[C@H]1CCNC1 [Example 14, 2-chloro-N-cyclohexyl-N-[(3S)pyrrolidin-3-yl]benzamide] |
| 0.014 | 0.003 | Cc1c(Cl)cccc1C(=O)N(CC1(C)CC1)[C@H]1CCNC1 [Example 20, 3-chloro-2-methyl-N-[(1-methylcyclopropyl)methyl]-N-[(3S)pyrrolidin-3-yl]benzamide hydrochloride] |
